# Data: patent publication US20100144888A1, “PESTICIDAL METHODS AND COMPOSITIONS FOR MODULATING GABA RECEPTORS” (ECOSMART TECHNOLOGIES, INC., priority 2008, published 2010)
# Key:
# [1] = target: T1, House Fly GABA receptor (Musca domestica, UniProt Q75NA5); assay: [3H]-TBOB binding assay, house fly GABA receptor; details: for modulation of the house fly GABA receptor: based on [3H]-TBOB-house fly GABA receptor binding assay, FIGS. 1-7; for effect on [3H]-TBOB binding activity: house fly GABA receptor, 4 nM [3H]-TBOB
# T1 sequence (Q75NA5 30-576): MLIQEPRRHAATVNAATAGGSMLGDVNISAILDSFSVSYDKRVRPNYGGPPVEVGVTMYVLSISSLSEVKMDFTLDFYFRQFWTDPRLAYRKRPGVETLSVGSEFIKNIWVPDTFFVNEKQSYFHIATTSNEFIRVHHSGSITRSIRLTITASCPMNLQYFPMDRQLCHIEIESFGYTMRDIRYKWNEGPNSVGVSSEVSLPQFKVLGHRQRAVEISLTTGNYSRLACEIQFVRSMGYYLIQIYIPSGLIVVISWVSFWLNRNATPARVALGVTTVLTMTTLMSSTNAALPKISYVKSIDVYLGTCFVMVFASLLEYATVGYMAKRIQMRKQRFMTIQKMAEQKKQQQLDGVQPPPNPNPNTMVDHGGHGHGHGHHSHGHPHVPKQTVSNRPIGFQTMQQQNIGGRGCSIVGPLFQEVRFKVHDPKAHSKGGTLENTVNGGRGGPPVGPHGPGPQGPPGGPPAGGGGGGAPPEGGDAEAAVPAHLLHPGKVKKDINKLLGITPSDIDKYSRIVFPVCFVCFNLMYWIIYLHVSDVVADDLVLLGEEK
# Protocol: [^3H]-TBOB Assay. In this study, five monoterpenoids (Pulegone, Thymol, Alpha-terpineol, Linalool and Carvacrol) were investigated to determine their modulation effects on [^3H]TBOB (t-butylbicycloorthobenzoate) binding to housefly GABA (Gamma-aminobutyric acid) receptors.
# House fly heads (200) were homogenized in 10 mM tris-HCL buffer (pH 7.5) containing 0.25M sucrose (buffer A) with a glass homogenizer. The homogenate was centrifuged at 1,000×g for 5 minutes. The supernatant was filtered by four layers cheesecloth and centrifuged at 25,000×g for 30 minutes. The supernatant was discarded, and the pellet was homogenized and resuspended in buffer A for 30 minutes. The suspension was centrifuged at 25,000×g for 30 minutes. The final pellet was suspended in 10 mM phosphate buffer (pH 7.5) containing 300 mM NaCL (buffer B) and used directly for the assays.
# (§1) 100 μl membrane was incubated for 70 minutes at room temperature with 4 nM [^3H]-TBOB, different amounts of candidate inhibitor and buffer B. The total assay buffer volume was 500 μl. After incubation, samples were filtered by glass fiber filter papers and washed with 5 ml ice-cold buffer B 3 times. Radioactivity was measured by liquid scintillation counter. Specific binding was calculated as the difference between the total ^3H bound and nonspecific ^3H bound with 100 μM picrotoxin.
# [2] = test system: insect GABA receptor (American cockroach CNS membrane microsacs); assay: GABA-activated 36Cl- uptake assay in membrane microsacs; type: biochemical, Periplaneta americana; details: for modulation of Cl- uptake: American cockroach membrane microsacs, 1 μM GABA, FIGS. 8-15; for type of modulation of the insect GABA receptor: conclusion from 36Cl- uptake results
# Protocol: Cockroach CNS Membrane Microsacs Preparation: Thoracic and abdominal ganglia were removed from 30 American cockroaches and homogenized in 8.0 ml ice-cold buffer of the following composition (in millimoles per liter): NaBr, 145; KBr, 5.0; MgSO4, 1.0; Ca(NO3)2, 1.0; D-glucose, 10.0; N-2-hydroxyethylpiperazine-N′-2-ethanesulphonic acid (HEPES), 10.0 (adjusted to pH 7.5). The homogenate was centrifuged in 1.0 ml aliquots at 10,000×g for 20 min, and the pellets were re-suspended in buffer, re-centrifuged and finally re-suspended in buffer for assaying GABA-activated ^36Cl— uptake.
# Cockroach GABA-activated ^36Cl— Uptake: Aliquots (200 μl) of this microsac preparation were incubated at 30° C. for 3 min after which 150 μl of a solution of ^36Cl— (0.2 μCi ml-l; specific activity 580 μCi mmol^−1) containing 1 μM GABA was added. Candidate monoterpenoids were incubated with the tissue sample for 3 min before addition of the solution containing ^36Cl— and GABA. To stop the influx of 36CL—, 2.0 m1 of ice cold buffer was added (after 10 s) and the solution was rapidly filtered over a glass-fiber filter (Whatman GF/C) followed by a 10-ml wash with ice-cold buffer. Filters, which then contained the microsacs, are placed into scintillation vials, and the scintillation cocktail was added. The vials were counted in the liquid scintillation counter, and the amount of ^36Cl— taken up into the microsacs was measured and calculated on the molar basis.
# [3] = target: Mouse GABAa receptor; assay: [3H]-TBOB binding assay, mouse GABAa receptor; details: means±S.D., n=3, FIG. 1, read-out: IC50, inhibition of [3H]-TBOB binding
# Protocol: as §1
Compound,modulation of the house fly GABA receptor [1],effect on [3H]-TBOB binding activity [1],modulation of Cl- uptake [2],type of modulation of the insect GABA receptor [2],IC50 [3] [µM]
Cc1ccc(C(C)C)c(O)c1 [thymol],modulated the house fly GABA receptor,potentiated the binding,modulate Cl— uptake,positive modulators,–
ClC1=C(Cl)[C@]2(Cl)[C@@H]3[C@@H]4C[C@@H]([C@H]5O[C@@H]45)[C@@H]3[C@@]1(Cl)C2(Cl)Cl [Dieldrin],–,–,–,–,3.78 ± 0.45
C=CC(C)(O)CCC=C(C)C (stereo not shown) [linalool],modulated the house fly GABA receptor,potentiated the binding,–,–,–
CC1=CCC(C(C)(C)O)CC1 (stereo not drawn) [alpha-terpineol],modulated the house fly GABA receptor,lesser effects,–,–,–
CC(C)=C1CC[C@@H](C)CC1=O [Pulegone],modulated the house fly GABA receptor,potentiated the binding,modulate Cl— uptake,–,–
Cc1ccc(C(C)C)cc1O [carvacrol],modulated the house fly GABA receptor,potentiated the binding,modulate Cl— uptake,positive modulators,–
